Data as given in US20200392223A1, “IL-17A ACTIVITY INHIBITOR AND USE THEREOF” (TOKAI UNIVERSITY EDUCATIONAL SYSTEM, priority 2018, published 2020).

What was measured:
[1] = tested on: rat nucleus pulposus (NP) cell; assay: mRNA expression (real time RT-PCR) in rat NP cells treated with IL-17A under 1% oxygen; format: cell-based; conditions: 24 hours
Protocol: Nucleus pulposus cells were separated from a Sprague Dawley rat aged 11 weeks according to a method in Risbud et al (Journal of cellular biochemistry 98, 152-159, 2006; doi:10.1002/jcb.20765). In short, lumbar and coccygeal intervertebral discs of a deeply anesthetized rat were dissected under an aseptic condition, gel-like nucleus pulposus was separated from intervertebral disc annulus fibrosus (AF), the nucleus pulposus was minced and pipetted, and then the nucleus pulposus was cultured in a Dulbecco's Modified Eagle Medium (DMEM) in which 20% FBS and antibiotics were added at 20% O2, 5% CO2, and 37° C. for about 1 to 2 weeks, and then was cultured in DMEM in which 10% FBS and antibiotics were added for about 1 to 2 weeks.
The cultured rat nucleus pulposus cells were treated with 20 or 50 ng/mL of recombinant mouse IL-17A (Pepro Tech Inc., USA, #210-17) for 24 hours, expression levels of mRNAs of IL-6, COX-2, mPGES1, MMP-3, and MMP-13 were determined by real time RT-PCR according to the following procedure. Total RNA was extracted from the nucleus pulposus cells using an RNAeasy mini-column (Qiagen, Germany). Before elution from the column, RNA was treated with RNase-Free DNase I (Qiagen, Germany). The purified DNA-free RNA was transformed into cDNA using a High Capacity cDNA Reverse Transcription Kit (Applied Biosystems, USA). Template cDNA and a primer specific to each gene were added to Power SYBR Green master mix (Applied Biosystems) and an expression level of mRNA of each gene was determined using Step One Plus Real-time PCR System (Applied Biosystems). The expression level was normalized to β actin. It was verified by melting curve analysis that RT-PCR was specific and a primer dimer was not formed. […]
In (B) and (C), among the compounds of the present invention, only the compound (3) which is considered from the results of (A) described below to have the highest effect on IL-6 and COX-2 was used.
A p38 phosphorylation inhibitor “SB203580” with a concentration of 10 μM, a JNK phosphorylation inhibitor “SP600125” with a concentration of 10 μM, or an ERK phosphorylation inhibitor “PD98059” with a concentration of 10 μM was administered to rat NP cells together with recombinant mouse IL-17A with a concentration of 50 ng/ml, or alternatively, these inhibitors were not administered, and the cells were cultured under a 1% oxygen condition for 24 hours, and an expression level of mRNA of each of COX-2 and IL-6 was determined by real time RT-PCR according to the same procedure as that of [Reference Example 2]. […]

p38 = assay: Phosphorylation of MAPK factors (western blotting) in rat NP cells treated with IL-17A; format: cell-based; conditions: 50 μg/ml + IL-17A 50 ng/ml, 1% oxygen
Protocol: In rat nucleus pulposus cells subjected to treatment for 24 hours in 50 ng/mL of IL-17A in which the most remarkable increases of IL-6 and COX-2 were observed, an expression level of a protein of each of IL-6 and COX-2, and β actin used as a control was determined by western blotting according to the following procedure. The nucleus pulposus cells were placed on ice and then washed with ice-cold PBS. In order to prepare total cell proteins, the cells were lysed with a lysis buffer containing 10 mM Tris-HCl (pH 7.6), 50 mM NaCl, 5 mM EDTA, 1% Nonidet P-40, a complete protease inhibitor cocktail (Roche AG, USA), 1 mM NaF, and 1 mM Na3VO4. The proteins were fractionated by SDS-PAGE and transferred onto Immobilon-P polyvinylidene difluoride membrane (Millipore Corporation, USA). […] Western blotting data were quantified by densitometric scanning of a film using Macintosh computer software “CS Analyzer” (ATTO Corporation, Japan). […]
It is reported that IL-17A is likely to be involved in the expression of COX-2 through a MAPK pathway. Involvement of IL-17A in MAPK factors (p38, JNK, and ERK) with respect to the expression of each of COX-2 and IL-6, and influence of the compound (1) of the present invention on these MAPK factors were evaluated by the following method. […]

[2] = tested on: mouse psoriasis skin model; assay: Mouse psoriasis skin model (imiquimod cream); format: in vivo
Protocol: About 1×1.5 cm of back of 10-week-old male BJ6J mouse was shaved, and imiquimod (IMQ, a drug causing psoriasis-like dermatitis in a mouse) cream was applied every day from day 1 to day 4. From the 5th day (day 5) after the first IMQ cream application, 6 to 8 hours after the application of the IMQ cream, a DMSO solution containing 1 mg of the compound (3) (database registration name: STK630921) was applied (STK group=compound (3) treated group). The same IMQ cream and the solution of the compound (3) were applied every day from the 6th day (day 6) to the 9th day (day 9). […]
On the 10th day (day 10), skin of the mice in each of the STK group, the Sham group, the IMQ group, and the normal group was collected, and one sample obtained by hematoxylin eosin (HE) staining and one sample obtained by immunofluorescence staining using an anti-CXCL1 antibody were prepared per mouse. In the HE stained samples, for each sample, a thickness of an epidermis layer was measured at two or more locations with the same magnification field of view, and an average value was statistically analyzed (significant difference: p<0.05, n=3).

[3] = tested on: rat intervertebral disc degeneration model; assay: Rat intervertebral disc degeneration model; format: in vivo; conditions: 1 mg in 10 μL DMSO injected into degenerated disc on day 14, evaluated day 28
Protocol: A 23G needle was inserted into a caudal intervertebral disc of a 11-weeks-old male SD rat (weight: 300 to 350 g) by about 5 mm, rotated at 360°, and left for 30 seconds to cause intervertebral disc degeneration (day 0). 14 days (day 14) after being subjected to the intervertebral disc degeneration, 10 μL of a DMSO solution containing 1 mg of the compound (3) (database registration number: STK630921) was injected to the degenerated intervertebral disc (STK group=compound (3) treated group). […]
28 days (day 28) after being subjected to the intervertebral disc degeneration, the caudal vertebrae of the rats in the STK group, the Sham group, the degeneration group, and the normal group were collected, fixed in 4% PFA, and decalcified, thereby preparing sample sections. […] In each sample subjected to the immunostaining, the number of IL-6 positive cells in spots of the same area arbitrarily set at 3 or 4 locations in the intervertebral disc tissue was counted with the same magnification field of view, and an expression rate of the IL-6 positive cells with respect to a total number of cells in the same spot was calculated.

[4] = compound 50 μg/ml + IL-17A 50 ng/ml, vs IL-17A only
[5] = inhibitor 10 μM + IL-17A 50 ng/ml

| Structure (SMILES) | expression level of mRNA of COX-2 [1, 4] | expression level of mRNA of IL-6 [1, 4] | expression level of mRNA of MMP-3 [1, 4] | expression level of mRNA of MMP-13 [1, 4] | expression level of mRNA of mPGES1 [1, 4] | further results |
| --- | --- | --- | --- | --- | --- | --- |
| C[C@H](NC(=O)Cc1nnc(O)c2ccccc12)C(=O)NCC1CCC(C(=O)O)CC1 (some centres unmarked) [(1)] | excellent in the action | – | – | – | – | phosphorylation of p38 (p38; 15 minutes): reduced; phosphorylation of p38 (p38; 30 minutes, vs IL-17A single administration group): significant reduction |
| CC(NC(=O)Cc1nnc(O)c2ccccc12)C(=O)NCC1CCC(C(=O)O)CC1 (centres unmarked) [(3)] | remarkably reduced | remarkably reduced | significantly reduced | significantly reduced | significantly reduced | thickness of the epidermis layer ([2]; DMSO solution containing 1 mg applied day 5 to day 9, skin collected day 10, HE staining): significantly reduced; expression of CXCL1 ([2]; DMSO solution containing 1 mg applied day 5 to day 9, skin collected day 10, immunofluorescence area): significantly reduced; expression rate of the IL-6 positive cells [3]: significantly reduced |
| COc1ccc(C[C@@]2(C)NC(=O)N(CC(=O)Nc3ccc(N4CCCC4=O)cc3)C2=O)cc1OC [(5)] | significantly reduced | significantly reduced | significantly reduced | significantly reduced | significantly reduced | – |
| CC(C)NC(=O)CCCCn1c(=O)c2ccccc2n(CC(=O)Nc2ccc3c(c2)OCO3)c1=O [(9)] | – | significantly reduced | – | – | – | – |
| C=C(C)COc1ccc2c(C)c(CC(=O)N(C)C[C@H](O)[C@H](O)[C@H](O)[C@H](O)CO)c(=O)oc2c1C [(11)] | significantly reduced | significantly reduced | significantly reduced | significantly reduced | significantly reduced | – |
| COc1cccc(-c2cc(=O)c3ccccc3o2)c1N [PD, PD98059, reference compound] | – | – | – | – | – | expression level of mRNA of COX-2 [1, 5]: significantly suppressed; expression level of mRNA of IL-6 [1, 5]: significantly suppressed |
| C[S+]([O-])c1ccc(-c2nc(-c3ccncc3)c(-c3ccc(F)cc3)[nH]2)cc1 (centres unmarked) [SB, SB203580, reference compound] | – | – | – | – | – | expression level of mRNA of COX-2 [1, 5]: significantly suppressed; expression level of mRNA of IL-6 [1, 5]: significantly suppressed |
